{"source": "paper PMC11211886", "about": "(Frontiers in Pharmacology, 2024)", "origin": "cited, not measured here", "key": {"[1]": {"settings": "ref FDA, cited from earlier work"}, "[2]": {"settings": "cited from earlier work; for incidence of ≥Grade 3 GI toxicity, including diarrhea and colitis: clinical trials, ref FDA, 2014, FDA, 2017, 2018, 2021"}, "P-gp": {"test_system": "P-gp", "design": "method as in FDA, 2014; FDA, 2017; FDA, 2018; FDA, 2021", "settings": "ref FDA, 2014, 2017, 2018, 2021; cited from earlier work"}, "[3]": {"settings": "among marketed PI3Kδ inhibitors; ref FDA, 2014; FDA, 2017, 2018, 2021; cited from earlier work"}}, "note": "Where two headings read alike, the source gives them in different places."}
{"smiles": "CC[C@H](Nc1ncnc2[nH]cnc12)c1nc2cccc(F)c2c(=O)n1-c1ccccc1", "note": "[idelalisib, Idelalisib]", "values": [{"measurement": "exposure in the intestines versus plasma", "setting": "[1]; 2014", "result": 50, "unit": "fold"}, {"measurement": "incidence of ≥Grade 3 GI toxicity, including diarrhea and colitis", "setting": "[2]", "result": "higher than 10%"}, {"measurement": "P-gp substrate status", "setting": "P-gp", "result": "P-gp substrates"}]}
{"smiles": "CC(C)Oc1ccc(-c2nn([C@@H](C)c3oc4ccc(F)cc4c(=O)c3-c3cccc(F)c3)c3ncnc(N)c23)cc1F", "note": "[umbralisib, Umbralisib]", "values": [{"measurement": "exposure in the intestines versus plasma", "setting": "[1]; 2021", "result": 100, "unit": "fold"}, {"measurement": "incidence of ≥Grade 3 GI toxicity, including diarrhea and colitis", "setting": "[2]", "result": "higher than 10%"}, {"measurement": "Vz/F in human", "setting": "[3]", "result": "highest Vz/F among these drugs"}]}
{"smiles": "C[C@H](Nc1ncnc2[nH]cnc12)c1cc2cccc(Cl)c2c(=O)n1-c1ccccc1", "note": "[duvelisib, Duvelisib]", "values": [{"measurement": "exposure in the intestines versus plasma", "setting": "[1]; 2017", "result": 100, "unit": "fold"}, {"measurement": "incidence of ≥Grade 3 GI toxicity, including diarrhea and colitis", "setting": "[2]", "result": "higher than 10%"}, {"measurement": "diarrhea, any-grade adverse event", "setting": "[2]; ref Wang et al., 2023", "result": 47, "unit": "%"}, {"measurement": "diarrhea, grade ≥3 AE", "setting": "[2]; ref Wang et al., 2023", "result": 12, "unit": "%"}, {"measurement": "P-gp substrate status", "setting": "P-gp", "result": "P-gp substrates"}]}
{"smiles": "COc1c(OCCCN2CCOCC2)ccc2c1N=C(NC(=O)c1cnc(N)nc1)N1CCN=C21", "note": "[copanlisib, Copanlisib]", "values": [{"measurement": "exposure in the intestines versus plasma", "setting": "[1]; 2018", "result": 190, "unit": "fold"}, {"measurement": "incidence of ≥Grade 3 GI toxicity, including diarrhea and colitis", "setting": "[2]", "result": "higher than 10%"}, {"measurement": "diarrhea (TEAE) incidence", "setting": "[2]; patients with indolent and aggressive lymphoma, phase II, ref Dreyling et al., 2017", "result": 40.5, "unit": "%"}, {"measurement": "P-gp substrate status", "setting": "P-gp", "result": "P-gp substrates"}]}
